Reference: the NIST ThermoML archive (doi:10.1016/j.fluid.2010.03.040)
± gives the expanded uncertainty stated by the source.

Settings: Capillary rise

COCCOC [1,2-dimethoxyethane]
Settings | surface tension liquid-gas [mN/m]
278.17 K | 26.52 ± 0.41
283.17 K | 25.97 ± 0.41
288.18 K | 25.28 ± 0.41
293.17 K | 24.67 ± 0.4
298.03 K | 23.94 ± 0.4
303.15 K | 23.42 ± 0.4
308.12 K | 22.84 ± 0.4
313.16 K | 22.25 ± 0.4
318.17 K | 21.56 ± 0.4
323.18 K | 21.02 ± 0.4
328.17 K | 20.41 ± 0.4
333.17 K | 19.83 ± 0.4
338.17 K | 19.29 ± 0.4
343.17 K | 18.74 ± 0.4
348.17 K | 18.12 ± 0.4
353.18 K | 17.59 ± 0.4
358.17 K | 16.91 ± 0.4
363.17 K | 16.35 ± 0.4
368.17 K | 15.74 ± 0.4
373.17 K | 15.23 ± 0.4

CCOC(=O)OCC [diethyl carbonate]
Settings | surface tension liquid-gas [mN/m]
273.18 K | 29.15 ± 0.41
278.18 K | 28.63 ± 0.41
283.18 K | 28.07 ± 0.41
288.18 K | 27.48 ± 0.41
293.16 K | 26.81 ± 0.41
298.1 K | 26.26 ± 0.41
303.17 K | 25.64 ± 0.41
308.11 K | 25.14 ± 0.41
313.19 K | 24.48 ± 0.41
318.16 K | 24.03 ± 0.41
323.16 K | 23.47 ± 0.41
328.12 K | 22.98 ± 0.41
333.18 K | 22.35 ± 0.41
338.17 K | 21.81 ± 0.41
343.17 K | 21.23 ± 0.4
348.17 K | 20.69 ± 0.4
353.19 K | 20.16 ± 0.4
358.18 K | 19.64 ± 0.4
363.16 K | 19.13 ± 0.4
368.18 K | 18.69 ± 0.4
373.17 K | 18.01 ± 0.4

CCOC(=O)CCCCC(=O)OCC [diethyl hexanedioate]
Settings | surface tension liquid-gas [mN/m]
293.16 K | 32.7 ± 0.4
298.09 K | 32.2 ± 0.4
303.17 K | 31.6 ± 0.4
308.11 K | 31 ± 0.4
313.18 K | 30.3 ± 0.4
318.15 K | 29.7 ± 0.4
323.17 K | 29.2 ± 0.4
328.12 K | 28.7 ± 0.4
333.16 K | 28.3 ± 0.4
338.16 K | 27.7 ± 0.4
343.15 K | 27.2 ± 0.4
348.13 K | 26.6 ± 0.4
353.16 K | 26.2 ± 0.4
358.13 K | 25.8 ± 0.4
363.13 K | 25.3 ± 0.4
368.15 K | 24.8 ± 0.4
373.14 K | 24.3 ± 0.4
